According to patent US12473332B2, “Modified peptides and associated methods of use” (Advanced Technologies For Novel Therapeutics, LLC, priority 2019, dated 2025):
Where no end group is shown, it is not given here.

What was measured:
[1] = test system: panel of 32 kinases; experiment: in vitro kinase selectivity panel of 32 kinases; assay type: biochemical; conditions: at IC50 for AKT1 (0.1 μM)
Procedure: (§1) To test the specificity/selectivity of ZaTa as the inhibitor of AKT1 versus the other major kinases, a series of in vitro kinase assays was performed at IC50 for AKT1 and at ten times higher concentrations. A panel of the following 32 kinases was first tested in vitro using the active form of each kinase and a specific substrate: AKT2, AKT3, PKA, PKCα, PKCγ, PI3Kβ, PI3Kδ, PI3Kγ, SGK, PAK2, PAK3, SAPK2/p38, Abl, CaMKII, CDK1/cyclinB, CDK5/p35, CK1, CK2, CSK, GSK3α, GSK3β, JNK1α1, MAPK1, p70S6K, PDGFRα, PDGFRβ, PDK1, PKG1α, TrkB, JAK2, JAK3, and Syk. […] However, at ten times higher concentration, ZaTa inhibited AKT2 (63%), PI3Kδ (72%), p70S6K (64%), SGK (73%), PAK3 (83%), JAK3 (79%), TrkB (84%), and Abl (42%). To confirm the in vitro inhibitory effect on these kinases in cells, a cell-based assay was used to determine the effect of labeled ZaTa on the phosphorylation levels of well-known intracellular substrates for each kinase (Zipfel, et al. (2004) Curr. Biol. 14:1222-1231; Wang, et al. (2003) Arch. Biochem. Biophys. 410:7-15; King, et al. (1998) Nature 396:180-183; Rangone, et al. (2004)Eur. J. Neurosci. 19:273-279; Middlemas, et al. (1994)J. Biol. Chem. 269:5458-5466; Huang, et al. (1999) J. Biol. Chem. 274:7870-7878). The results of this cell-based kinase assay confirmed that ZaTa could inhibit p70S6K besides AKT. […]

[2] = test system: N2a cells; experiment: AKT-PKAc complex and neurite count in cultured N2a neurons; assay type: cell-based; conditions: 24 hours treatment
Procedure: Accordingly, the stability and phenotypic consequences of the AKT-PKAc complex was also analyzed in cultured neurons. N2a cells were treated with vehicle, ZaTa or control peptide for 24 hours. Media was removed after the 24-hour treatment and an equal number of cells from each treatment group was either cultured for another 24 hours without treatment, or lysed and subjected to immunoprecipitation with an antibody against AKT. Those cells cultured for another 24 hours were also harvested and subjected to immunoprecipitation. In parallel, the number of individual neurons with neurites was counted. […] Live images of N2a neurons were captured following treatment with vehicle or ZaTa (2 or 5 μM). […] ZaTa-mediated changes included a progressive loss of neurites, inhibition of new neurite formation, loss of cell motility, as well as formation of large cell colonies.

[3] = test system: PKA, PKC, CDKs; experiment: stereotactic injection into brain, phosphorylation of PKA, PKC and CDKs substrates; design: species or system mouse
Procedure: (§2) To analyze in vivo selectivity, ZaTa was injected into one hemisphere and DMSO in the other hemisphere, as above, and a series of western blot analyses was performed with phospho-specific antibodies which recognize a phosphorylated substrate or each one of the kinases that ZaTa inhibited at higher concentrations in vitro. […] Given the high functional and structural homology between p70S6K and AKT, the in vivo inhibitory effect of ZaTa on p70S6K was contemplated. Furthermore, the in vivo effect of ZaTa on the phosphorylation levels of substrates for PKA, PKC, CDKs using phospho-specific antibodies recognizing the phosphorylated consensus sites of these kinases was analyzed.
As a striatal specific substrate for PKA and CDK5, the phosphorylation level of DARPP-32 was determined at Thr-34 (the PKA site) or at Thr-75 (the CDK5 site) (Huang, et al. (1999) supra).

[4] = test system: primary neurons; experiment: TUNEL assay in primary cortical culture; assay type: cell-based; conditions: 1 μM or 5 μM, 72-hour treatment, vs control peptide
Procedure: It is now well-established that AKT protects against apoptosis through phosphorylation and inhibition of pro-apoptotic mediators such as BAD, FOXO family members and IKK-β (Datta, et al. (1999) Genes Dev. 13:2905-2927). […] Primary neurons were treated with DMSO, 1 μM or 5 μM of either ZaTa or the control peptide for a duration of 1, 3, 16, 24, 48 or 72 hours. The number of apoptotic cells was counted following the TUNEL assay. […] The increase in the number of apoptotic neurons following treatment with ZaTa was consistent with its potent intra-neuronal inhibition of AKT.

[5] = target: T1, AKT-PKAc complex (Mus musculus, UniProt P31750); experiment: AKT immunoprecipitation from striatum after stereotactic injection; assay type: in vivo, C57BL/6 mouse; conditions: ZaTa vs vehicle hemisphere
T1 construct: ZaTa could disrupt the physical complex between AKT and PKAc in vivo; from tissue; host or cells: mouse striatum
Procedure: The phenotypic consequence of disrupting the AKT-PKAc complex was also determined. ZaTa peptide was injected into the striatum of one hemisphere of the brain and DMSO, as vehicle, was injected into the other brain hemisphere of an adult C57BL/6 mouse under anesthesia. The brain was removed and dissected. Equal protein amounts from each hemisphere were subjected to immunoprecipitation by an anti-AKT antibody. […] To compare PKAc protein levels in the ZaTa- and vehicle-treated brain hemisphere lysates, western blot analysis was conducted.

[6] = target: PKAc (Homo sapiens, UniProt P17612); experiment: independent kinase assays on PKAc catalytic activity; assay type: biochemical
[7] = target: T2, Abl (Mus musculus, UniProt P00520); experiment: stereotactic injection into brain, western blot with phospho-specific antibodies; assay type: in vivo; conditions: vs DMSO hemisphere
T2 construct: from tissue; host or cells: brain hemisphere, in vivo
Procedure: as §2

[8] = target: T3, p70S6K (Mus musculus, UniProt Q8BSK8); experiment: as above; assay type: in vivo; conditions: vs DMSO hemisphere
T3 construct: from tissue; host or cells: brain hemisphere, in vivo
Procedure: as §2

[9] = target: T4, p70S6K (Homo sapiens, UniProt P23443); experiment: cell-based kinase assay, phosphorylation of intracellular substrates
T4 construct: phosphorylation levels of well-known intracellular substrates for each kinase; endogenous in cells
Procedure: as §1

T3 sequence (Q8BSK8 whole entry): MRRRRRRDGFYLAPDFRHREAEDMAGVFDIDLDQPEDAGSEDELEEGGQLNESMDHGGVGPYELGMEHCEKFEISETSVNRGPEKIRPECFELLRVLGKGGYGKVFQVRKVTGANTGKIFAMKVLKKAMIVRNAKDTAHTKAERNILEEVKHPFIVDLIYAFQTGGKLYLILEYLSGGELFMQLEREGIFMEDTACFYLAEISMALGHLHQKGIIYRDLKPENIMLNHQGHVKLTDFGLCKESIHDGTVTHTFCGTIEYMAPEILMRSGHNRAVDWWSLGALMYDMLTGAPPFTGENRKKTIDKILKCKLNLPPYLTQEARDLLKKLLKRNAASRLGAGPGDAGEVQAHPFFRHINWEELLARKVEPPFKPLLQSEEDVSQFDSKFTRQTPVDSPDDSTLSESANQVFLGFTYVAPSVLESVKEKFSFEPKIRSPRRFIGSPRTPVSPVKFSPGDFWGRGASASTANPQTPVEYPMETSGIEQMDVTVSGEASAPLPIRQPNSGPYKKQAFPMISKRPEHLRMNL
T1 sequence (P31750 whole entry, one chain of several): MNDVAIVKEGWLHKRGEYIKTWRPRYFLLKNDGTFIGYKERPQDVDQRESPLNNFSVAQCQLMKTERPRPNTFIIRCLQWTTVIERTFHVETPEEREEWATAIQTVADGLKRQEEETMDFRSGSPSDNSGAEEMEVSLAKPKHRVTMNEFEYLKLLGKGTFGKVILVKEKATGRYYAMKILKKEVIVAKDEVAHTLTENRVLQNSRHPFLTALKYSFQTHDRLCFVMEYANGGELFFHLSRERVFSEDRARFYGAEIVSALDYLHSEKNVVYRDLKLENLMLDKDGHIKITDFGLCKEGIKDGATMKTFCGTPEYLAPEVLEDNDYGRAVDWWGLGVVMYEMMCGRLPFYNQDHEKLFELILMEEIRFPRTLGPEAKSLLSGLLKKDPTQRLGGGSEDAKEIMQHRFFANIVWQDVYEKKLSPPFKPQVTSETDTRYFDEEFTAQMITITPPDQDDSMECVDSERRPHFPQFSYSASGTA
T2 sequence (P00520 whole entry): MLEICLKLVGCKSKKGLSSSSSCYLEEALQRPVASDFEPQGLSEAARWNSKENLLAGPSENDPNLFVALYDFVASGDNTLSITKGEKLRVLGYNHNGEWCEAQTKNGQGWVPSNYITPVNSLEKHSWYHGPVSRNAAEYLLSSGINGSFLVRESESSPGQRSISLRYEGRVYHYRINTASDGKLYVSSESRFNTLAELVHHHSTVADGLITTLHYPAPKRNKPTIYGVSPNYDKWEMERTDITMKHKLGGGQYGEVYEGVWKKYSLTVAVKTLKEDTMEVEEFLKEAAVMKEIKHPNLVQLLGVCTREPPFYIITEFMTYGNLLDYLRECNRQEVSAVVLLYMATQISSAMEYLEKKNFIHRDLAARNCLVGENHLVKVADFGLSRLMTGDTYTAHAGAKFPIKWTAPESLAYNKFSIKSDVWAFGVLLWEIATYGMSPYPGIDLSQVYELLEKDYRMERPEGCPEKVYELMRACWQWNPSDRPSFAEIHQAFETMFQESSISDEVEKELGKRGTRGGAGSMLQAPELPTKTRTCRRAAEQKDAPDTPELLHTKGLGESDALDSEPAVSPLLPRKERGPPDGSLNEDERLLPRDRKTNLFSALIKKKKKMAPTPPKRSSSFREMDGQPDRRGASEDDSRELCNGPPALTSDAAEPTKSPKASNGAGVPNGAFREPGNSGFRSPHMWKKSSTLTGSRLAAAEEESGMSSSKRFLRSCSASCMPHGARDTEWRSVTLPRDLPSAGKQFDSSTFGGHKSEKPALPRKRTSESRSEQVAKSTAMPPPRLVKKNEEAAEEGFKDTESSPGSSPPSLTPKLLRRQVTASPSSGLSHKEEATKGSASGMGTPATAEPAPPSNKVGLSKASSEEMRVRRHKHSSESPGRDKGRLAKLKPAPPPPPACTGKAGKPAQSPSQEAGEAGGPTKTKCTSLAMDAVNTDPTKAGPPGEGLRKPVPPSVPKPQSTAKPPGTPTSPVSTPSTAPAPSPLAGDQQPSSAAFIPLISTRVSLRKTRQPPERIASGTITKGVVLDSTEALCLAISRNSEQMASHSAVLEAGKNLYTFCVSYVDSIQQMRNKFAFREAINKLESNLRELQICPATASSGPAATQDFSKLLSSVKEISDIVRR
T4 sequence (P23443 whole entry): as the sequence (Q8BSK8 whole entry) above, with L12P, H18D, V488M counted along it

## AKRVKGRTWTLCGTPEY [Peptide 53, A-K-R-V-K-G-R-T-W-T-L-C-G-T-P-E-Y]
[1]
  inhibition of panel kinases: no significant inhibition
[2]
  amount of PKAc in physical contact with AKT: reduced the amount of PKAc in physical contact with AKT
  number of neurons with neurites: significant reduction in the number of neurons with neurites
[3]
  phosphorylation level of PKA, PKC and CDKs substrates in vivo: significant changes in the phosphorylation level of PKA, PKC and CDKs substrates was not observed
[4]
  number of TUNEL-positive cells: marked dose-dependent increase in the number of TUNEL-positive cells
[5]
  amount of PKAc in physical contact with AKT: dramatically reduced
[6]
  inhibitory effect on catalytic activity of PKAc: did not exhibit any inhibitory effect
[7]
  in vivo inhibition of Abl: weaker in vivo inhibition
[8]
  in vivo inhibition of p70S6K: potent in vivo inhibition
[9]
  inhibition of p70S6K in cells: could inhibit
